Assay results taken from patent US10815275B2, “Antimicrobial peptoids with improved selectivity and use thereof” (priority 2018, dated 2020).
Converted amounts (≈) assume the structure as drawn. Non-standard residues stand in square brackets, D forms with d. Residues, ends and D or L forms follow the SMILES beside them. Nspe = C[C@H](NCC(=O)O)c1ccccc1; Nlys = NCCCCNCC(=O)O

Experiments:
Assay type in all cases: cell-based
E. coli strain ATCC25922 = conditions: strain ATCC25922
Outline: (§1)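 Broth microdilution in cation-adjusted Mueller Hinton Broth used 2×10^5 CFU/mL in medium with 0.2% BSA and 0.01% acetic acid. Peptoids were 2-fold serially diluted, and plates were incubated 18 hours at 37° C. with absorbance read at 600 nm. MIC was the lowest concentration completely suppressing growth, averaged over three independent experiments; MBC was also determined.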

[1] = test system: S. aureus strain KCTC1621; conditions: strain KCTC1621
Outline: as §1

E. coli (63103 ESBL) = test: MIC in multidrug-resistant bacteria panel, modified microdilution; conditions: overnight, 37° C.
Method: (§2) Minimum inhibitory concentrations of the prepared peptoids for multidrug-resistant bacteria were measured using a modified microdilution method in Difco Mueller Hinton medium, and tests were done on a panel of bacterial pathogens which have resistance and tolerance against common antibiotics.
(§3) Briefly, a peptoid concentrate, which is 10-fold more concentrated than a final concentration, was serially diluted with a medium containing 0.2% bovine serum albumin and 0.01% acetic acid. 10 μL of the 10-fold concentrated peptoid concentrate and 90 μL of Muller Hinton medium were added to each well of a 96-well polypropylene microtitre plate. Bacteria were added to the plate so that a final concentration thereof was 2×10^5 CFU/mL, and then incubated overnight at a temperature of 37° C. The minimum inhibitory concentration was defined as a concentration at which no bacterial growth is observed.

S. aureus (ATCC25923) = test: as above; conditions: overnight, 37° C.
Method: as §2, §3

[2] = test system: S. epidermidis (ET-024 MRSA); test: as above; conditions: overnight, 37° C.
Method: as §2, §3

## C[C@@H](c1ccccc1)N(CC(N)=O)C(=O)CN(C(=O)CN(CCCCN)C(=O)CN(C(=O)CN(C(=O)CN(CCCCN)C(=O)CN(C(=O)CN(C(=O)CN(CCCCN)C(=O)CN(C(=O)CN(C(=O)CNCCCCN)[C@@H](C)c1ccccc1)[C@@H](C)c1ccccc1)[C@@H](C)c1ccccc1)[C@@H](C)c1ccccc1)[C@@H](C)c1ccccc1)[C@@H](C)c1ccccc1)[C@@H](C)c1ccccc1 [compound 1] (H-[Nlys][Nspe][Nspe][Nlys][Nspe][Nspe][Nlys][Nspe][Nspe][Nlys][Nspe][Nspe]-NH2)
E. coli strain ATCC25922
  MBC E. coli: 3.1 µM (≈ 5.64 µg/mL)
[1]
  MBC S. aureus: 1.6 µM (≈ 2.91 µg/mL)
E. coli (63103 ESBL)
  minimum inhibitory concentration E. coli (63103 ESBL): 1.6
S. aureus (ATCC25923)
  minimum inhibitory concentration S. aureus (ATCC25923): 1.6
[2]
  minimum inhibitory concentration S. epidermidis (ET-024 MRSA): <0.8 to 0.8
